In patent US8044186B2, “Heterologous production of capreomycin and generation of new capreomycin derivatives through metabolic engineering” (priority 2007, dated 2011):
Values after ≈ are worked out from the molar mass of the structure shown.

Columns and labels:
[1] = tested on: E. coli DH5α/pBAD33/pLJ102 (cmnU−, tlyA−); experiment: MIC in E. coli, cmnU not expressed, tlyA not expressed; format: cell-based, Escherichia coli
Excerpt: (§1) Analysis of cmnU in E. coli. The gene cmnU was PCR amplified from pCMN-P4C8RF using the following primers: CmnU-NdeI (5′-[…]-3′) (SEQ ID NO:37) and CmnU-HindIII (5′-[…]-3′) (SEQ ID NO:38). The amplicon was cloned into pCR-BluntII-TOPO according to manufacturer's instructions (Invitrogen), resulting in pCR-BluntII-TOPO-cmnU. The NdeI/HindIII fragment of pCR-Blunt-TOPO-cmnU containing cmnU was subcloned into the corresponding restriction sites of pET22b (Novagen), resulting in pET22b-cmnU. The XbaI/HindIII fragment of pET22b-cmnU containing the optimized ribosome-binding site and cmnU was subcloned into the corresponding sites of pBAD33 (14) resulting in pBAD33-cmnU. This construct results in the expression of cmnU under the control of the arabinose promoter of pBAD33. pBAD33 and pBAD33-cmnU were transformed into DH5α strains containing either pLJ102 (empty vector) or pSJ101 (tlyA inserted into pLJ102 and expression controlled by IPTG induction) (18). Each of these strains was grown in LB medium containing chloramphenicol (15 μg/ml) and ampicillin (100 μg/ml) for plasmid maintenance, isopropyl-beta-D-thiogalactopyranoside (40 μg/ml) and arabinose (2% w/v) for induced expression of tlyA and cmnU, respectively, and varying concentrations of CMN (12.5-100 μg/ml) or kanamycin (6-96 μg/ml). […]

[2] = tested on: E. coli DH5α/pBAD33-cmnU/pLJ102 (cmnU+, tlyA−); experiment: MIC in E. coli expressing cmnU; format: cell-based, Escherichia coli
Excerpt: as §1

[3] = tested on: E. coli DH5α/pBAD33/pSJ101 (cmnU−, tlyA+); experiment: MIC in E. coli expressing tlyA; format: cell-based, Escherichia coli
Excerpt: as §1

[4] = tested on: E. coli DH5α/pBAD33-cmnU/pSJ101 (cmnU+, tlyA+); experiment: MIC in E. coli expressing cmnU and tlyA; format: cell-based, Escherichia coli
Excerpt: as §1

[5] = tested on: St. lividans 1326/pSE34 (cmnU−); experiment: MIC in St. lividans 1326 with empty vector; format: cell-based, Streptomyces lividans
Description: (§2) Analysis of cmnU in St. lividans 1326. The XbaI/HindIII fragment of pET22b-cmnU was cloned into the corresponding sites of pSE34 (29) to generate pSE34-cmnU. This vector construct results in the constitutive expression of cmnU when pSE34-cmnU is introduced into St. lividans 1326. pSE34-cmnU and pSE34 were introduced into St. lividans 1326 by transformation, and successful transformants were selected by using an overlay of thiostrepton (8 μg/ml). Transformants were streaked for isolation on ISP2 medium containing thiostrepton. To test for CMN or kanamycin resistance, 10^5 spores of St. lividans 1326 containing either pSE34-cmnU or pSE34 were plated onto ISP2 plates supplemented with CMN (25-1600 μg/ml) or kanamycin (3-1600 μg/ml). The plates were incubated at 30° C. for 2 days, and the minimum inhibitory concentration was defined as the lowest antibiotic concentration at which no growth was observed.

[6] = tested on: St. lividans 1326/pSE34-cmnU (cmnU+); experiment: MIC in St. lividans 1326 expressing cmnU; format: cell-based, Streptomyces lividans
Description: as §2

[7] = Escherichia coli, 16 h, read-out: minimum inhibitory concentration (MIC)
[8] = Streptomyces lividans, 48 h, read-out: minimum inhibitory concentration (MIC)

Row | Compound | MIC [1, 7] | MIC [2, 7] | MIC [3, 7] | MIC [4, 7] | MIC [5, 8] | MIC [6, 8] | minimum inhibitory concentration (MIC) ([1]; E. coli DH5α/pBAD33/pLJ102 (cmnU−, tlyA−), lowest concentration with OD650 < 0.1 after 16 hrs at 37° C. in LB medium, three separate experiments) | minimum inhibitory concentration (MIC) ([2]; E. coli DH5α/pBAD33-cmnU/pLJ102 (cmnU+, tlyA−), lowest concentration with OD650 < 0.1 after 16 hrs at 37° C. in LB medium, three separate experiments) | minimum inhibitory concentration (MIC) ([3]; E. coli DH5α/pBAD33/pSJ101 (cmnU−, tlyA+), lowest concentration with OD650 < 0.1 after 16 hrs at 37° C. in LB medium, three separate experiments) | minimum inhibitory concentration (MIC) ([4]; E. coli DH5α/pBAD33-cmnU/pSJ101 (cmnU+, tlyA+), lowest concentration with OD650 < 0.1 after 16 hrs at 37° C. in LB medium, three separate experiments) | minimum inhibitory concentration (MIC) ([5]; St. lividans 1326/pSE34 (cmnU−), lowest concentration with no growth on ISP2 plates after 2 days at 30° C., three separate experiments) | minimum inhibitory concentration (MIC) ([6]; St. lividans 1326/pSE34-cmnU (cmnU+), lowest concentration with no growth on ISP2 plates after 2 days at 30° C., three separate experiments)
1 | NC[C@H]1O[C@H](O[C@H]2[C@H](O)[C@@H](O[C@H]3O[C@H](CO)[C@@H](O)[C@H](N)[C@H]3O)[C@H](N)C[C@@H]2N)[C@H](O)[C@@H](O)[C@@H]1O [Kanamycin, kanamycin] | 12 µg/mL (≈ 24.8 µM) | 96 µg/mL (≈ 198 µM) | 12 µg/mL (≈ 24.8 µM) | 24 µg/mL (≈ 49.5 µM) | 6 µg/mL (≈ 12.4 µM) | > 1600 µg/mL |  |  |  |  |  | 
2 | capreomycin [CMN] |  |  |  |  |  |  | 50 µg/mL | 100 µg/mL | 25 µg/mL | 50 µg/mL | 200 µg/mL | >1600 µg/mL
